Test results from patent publication US8530511B2, “Administration of dithiolane compounds for photoprotecting the skin” (L'Oreal, priority 2008, dated 2013).
Several values for one entry are separate records, joined by “and”; a condition that tells them apart may be missing. Equal values may be shown once.

Experiments:
HaCaT cells = experiment: MCB test on HaCaT: intracellular GSH level after UV daylight (UV-DL) exposure; format: cell-based, human; settings: for activity at 30 µM / inhibition at 30 µM / activity at 100 µM / inhibition at 100 µM: Homo sapiens, t=6 hours after exposure; for activity at 30 µM / activity at 100 µM: GSH-monochlorobimane fluorescence, HaCaT pretreated and exposed to UV-DL, read-out: % fluo; for inhibition at 30 µM / inhibition at 100 µM: against UV-DL-induced depletion of GSH, read-out: % protection; for inhibition at 30 µM / inhibition at 100 µM / protection against the UV-DL-induced depletion of GSH: HaCaT
Experimental: The study consisted in evaluating at the cellular level the protective effect of the reference molecule, lipoic acid, and also of lipoic acid derivatives according to the invention, with respect to the UV-DL-induced depletion of intracellular GSH.
To do this, HaCaT cells were exposed to UV daylight (UV-DL). The level of intracellular GSH was then measured, thus allowing evaluation of the possible protection afforded by the addition to the culture medium of the lipoic acid derivatives according to the invention.
UV daylight corresponds to the radiation of non-zenithal sunlight and to an average spectral illumination: it […] the radiation received by the skin of an individual in the course of a day and not solely to that corresponding to exposure to zenithal sunlight. Devices for reproducing this radiation are described in FR 2,863,356. The evaluation technique uses a fluorescent probe, monochlorobimane (MCB). […] The specificity of MCB towards GSH in our keratinocyte model (HaCaT line) was confirmed previously. Pretreatment of cells with the reference molecule, lipoic acid, for 24 hours at 1 mM affords approximately 100% protection against the UV-DL-induced depletion of GSH (see FIG. 1 showing the evaluation of the protective effect of lipoic acid at 1 mM in the MCB test on HaCaT: the measurement of the level of intracellular GSH is performed on keratinocytes that are or are not pretreated with lipoic acid at 1 mM and exposed to UV-DL at t=0, t=6 hours and t=24 hours after the exposure to UV-DL); this protection is about 83% at 500 μM and about 10% at 100 μM.
Evaluation of the protective effect of compound 1 at 100 μM and at 30 μM of compounds 9, 10, 2, 13, 14, 12, 24, 26 and 27 is performed in the MCB test on HaCaT: evaluation of the protective effect of the silyl dithiolane compounds of WO 2008/058 999 at 100 μM is also performed in the MCB test on HaCaT: the compound 5-(1,2-dithiolan-3-yl)-N-[3-(trimethylsilyl)propyl]pentanamide and the compound (trimethylsilyl)methyl 5-(1,2-dithiolan-3-yl)pentanoate. Measurement of the intracellular level of GSH is performed on keratinocytes that have or have not been pretreated with the active agents and exposed to UV-DL, t=6 hours after the exposure to UV-DL). The results are given in the graphs in FIGS. 2 and 3.

[1] = tested on: normal human fibroblasts (NHF); experiment: Comet test: UV-A-induced DNA damage in normal human fibroblasts; format: cell-based; settings: 24 hours contact, UV-A = 30 min
Description: Solar UV is capable of giving rise to extensive oxidative damage in skin cells, and especially in DNA. The nucleic acids absorb the UV-B photons, thus inducing DNA damage directly. Although UV-A is not directly absorbed by DNA, it has a genotoxic action mediated by reactive oxygen species. The comet test makes it possible to quantify the UV-induced DNA damage (in this case UV-A): the breaking of strands and oxidative DNA lesions (alkali-labile sites cleaved under alkaline conditions) are detected. The principle of this test is based on the capacity of denatured and cleaved DNA fragments to migrate outside the cell nuclei, under the influence of an electric field, whereas undamaged DNA remains confined in the nucleus. The damaged DNA fragments form a trail behind the cell nucleus. The cells then take the appearance of “comets”. The “tail” of each comet is proportionately larger and stronger the greater the DNA damage incurred. (Alapetite C. et al., 1996, Int. J. Rad. Bio.; Klaude M, et al., 1996, Mut. Res.; Lehmann J. et al., 1998, Mut. Res.; Singh N P. et al., 1988, Exp. Cell Res.).
The study consisted in evaluating the photoprotective effect of two molecules with respect to UV-A-induced DNA damage. To do this, normal human fibroblasts (NHF) were placed in contact with the active agents for 24 hours. The cells were then detached, included in an agarose gel and then deposited on a microscope slide. Following the UV-A exposure (for 30 minutes), the cells were subjected to cell lysis (so as to keep intact only the genetic material), to a DNA-denaturing step and then to electrophoresis to make the damaged DNA migrate. The level of damaged DNA was measured using a fluorescence microscope combined with specialized image analysis software.

Compound	activity at 30 µM (HaCaT cells)	inhibition at 30 µM (HaCaT cells)	activity at 100 µM (HaCaT cells)	inhibition at 100 µM (HaCaT cells)	also measured
CC(=O)NCCSC(=O)C1(C)CSSC1 [Compound 13, S-[2-(acetylamino)ethyl]4-methyl-1,2-dithiolane-4-carbothioate]	71%	50%			
CCCCCCCCOC(=O)C1(C)CSSC1 [Compound 9, octyl 4-methyl-1,2-dithiolane-4-carboxylate]	80%	66%			
COC(=O)C(CCSC)NC(=O)C1(C)CSSC1 (stereo not shown) [Compound 12, methyl 2-{[(4-methyl-1,2-dithiolan-4-yl)carbonyl]amino}-4-(methylsulfanyl)butanoate]	78%	61%			
CCCCCCCNC(=O)C1(C)CSSC1 [Compound 10, N-heptyl-4-methyl-1,2-dithiolane-4-carboxamide]	99%	98%			
CC1(C(=O)NCCO)CSSC1 [Compound 14, N-(2-hydroxyethyl)-4-methyl-1,2-dithiolane-4-carboxamide]	78%	61%			
CC1(C(=O)O)CSS(=O)(=O)C1 (stereo not shown) [Compound 24, 4-methyl-1,2-dithiolane-4-carboxylic acid 1,1-dioxide]	91%	63%			
CC1(C(=O)O)CSSC1 [Compound 1, 4-methyl-1,2-dithiolane-4-carboxylic acid]			88%	74%	% of DNA damage ([1]; 1 μM): 80.7%; % protection ([1]; 1 μM): 19.3%; Mean TM (DNA damage) ([1]; 1 μM): 9.38; % protection ([1]; 1 μM, listed as compound 1): 20%; % of DNA damage ([1]; 10 μM): 69.4%; % protection ([1]; 10 μM): 30.6%; Mean TM (DNA damage) ([1]; 10 μM): 8.06; % protection ([1]; 10 μM, listed as compound 1): 30%
CC1(C(N)=O)CSS(=O)(=O)C1 (stereo not shown) [Compound 27, 4-methyl-1,2-dithiolane-4-carboxamide 1,1-dioxide]	100%	101%			
CC1(C(N)=O)CSSC1 [Compound 2, 4-methyl-1,2-dithiolane-4-carboxamide]	92%	86%			% of DNA damage ([1]; 10 μM): 37.1%; % protection ([1]; 10 μM): 63% and 62.9%; Mean TM (DNA damage) ([1]; 10 μM): 2.73
O=C(O)CCCCC1CCSS1 (stereo not shown) [lipoic acid, 1,2-dithiacyclopentane-3-valeric acid, reference compound]			63%	13%	protection against the UV-DL-induced depletion of GSH (HaCaT cells; pretreatment at 100 μM): about 10%; protection against the UV-DL-induced depletion of GSH (HaCaT cells; pretreatment at 500 μM): about 83%; protection against the UV-DL-induced depletion of GSH (HaCaT cells; pretreatment for 24 hours at 1 mM): approximately 100%
CC1(C(N)=O)CS[S+]([O-])C1 (stereo not shown) [Compound 26, 4-methyl-1,2-dithiolane-4-carboxamide 1-oxide]	117%	169%			
C[Si](C)(C)COC(=O)CCCCC1CCSS1 (stereo not shown) [(trimethylsilyl)methyl 5-(1,2-dithiolan-3-yl)pentanoate, reference compound]			76%	42%	
C[Si](C)(C)CCCNC(=O)CCCCC1CCSS1 (stereo not shown) [5-(1,2-dithiolan-3-yl)-N-[3-(trimethylsilyl)propyl]pentanamide, reference compound]			75%	41%	
